Experimental data published in US6900219B2, “ABCA-1 elevating compounds” (CV Therapeutics, Inc., priority 2002, dated 2005).

What follows are compounds tested on ABCA-1 gene (assay: compounds tested and found to elevate cellular expression of the ABCA-1 gene (Examples 1-6; test not named)).
Type: cell-based
Protocol: Activity testing is conducted as described in those patents and patent applications referenced above, and in the Examples below, and by methods apparent to one skilled in the art.
In the case of `Cc1ccc(-c2cnc(NC(=O)c3ccc(Cl)cc3)s2)cc1` [(4-chlorophenyl)-N-[5-(4-methylphenyl)(1,3-thiazol-2-yl)]carboxamide], the “cellular expression of the ABCA-1 gene” value was “elevate cellular expression of the ABCA-1 gene”.
With `CCOc1ccc2nc(NC(=O)Nc3ccccc3)sc2c1` [N-(6-ethoxybenzothiazol-2-yl)(phenylamino)carboxamide] the “cellular expression of the ABCA-1 gene” value was “elevate cellular expression of the ABCA-1 gene”.
`O=C(Nc1ncc(-c2ccc(F)cc2)s1)C1CC1` [cyclopropyl-N-[5-(4-fluorophenyl)(1,3-thiazol-2-yl)]carboxamide] was tested, and the “cellular expression of the ABCA-1 gene” value was “elevate cellular expression of the ABCA-1 gene”.
In the case of `CC(C)(C)c1ccc(C(=O)Nc2nc(-c3ccc4ccccc4c3)cs2)cc1` [[4-(tert-butyl)phenyl]-N-(4-(2-naphthyl)(1,3-thiazol-2-yl))carboxamide], the “cellular expression of the ABCA-1 gene” value was “elevate cellular expression of the ABCA-1 gene”.
With `N#Cc1cccc(C(=O)Nc2nc3ccccc3s2)c1` [N-benzothiazol-2-yl(3-cyanophenyl)carboxamide] the “cellular expression of the ABCA-1 gene” value was “elevate cellular expression of the ABCA-1 gene”.
In the case of `CCCNC(=O)Nc1nc2ccccc2s1` [N-benzothiazol-2-yl(propylamino)carboxamide], the “cellular expression of the ABCA-1 gene” value was “elevate cellular expression of the ABCA-1 gene”.
With `CCc1ccc(N(Cc2c3ccccc3cc3ccccc23)C(=O)Nc2ccccc2F)cc1` [N-(9-anthrylmethyl)-N-(4-ethylphenyl)[(2-fluorophenyl)amino]carboxamide] the “cellular expression of the ABCA-1 gene” value was “elevate cellular expression of the ABCA-1 gene”.
With `O=C(Nc1ncc(-c2ccccc2)s1)C1CCCCC1` [cyclohexyl-N-(5-phenyl(1,3-thiazol-2-yl))carboxamide] the “cellular expression of the ABCA-1 gene” value was “elevate cellular expression of the ABCA-1 gene”.
`Cc1ccc2cc(NC(=O)c3ccccc3F)ccc2n1` [(2-fluorophenyl)-N-(2-methyl(6-quinolyl))carboxamide] was tested, and the “cellular expression of the ABCA-1 gene” value was “elevate cellular expression of the ABCA-1 gene”.
With `CCCCN(Cc1ccc(OCc2ccccc2)cc1)C(=O)Nc1ccc(SC)cc1` [N-butyl[(4-thiomethylphenyl)amino]-N-{[4-(phenylmethoxy)phenyl]methyl}-carboxamide] the “cellular expression of the ABCA-1 gene” value was “elevate cellular expression of the ABCA-1 gene”.
In the case of `CCOC(=O)c1ccc(NC(=O)Nc2ccccc2)cc1` [ethyl 4-[(phenylamino)carbonylamino]benzoate], the “cellular expression of the ABCA-1 gene” value was “elevate cellular expression of the ABCA-1 gene”.
With `O=C(Nc1ncc(-c2ccccc2)s1)C1CC1` [cyclopropyl-N-(5-phenyl(1,3-thiazol-2-yl))carboxamide] the “cellular expression of the ABCA-1 gene” value was “elevate cellular expression of the ABCA-1 gene”.
For `CCOc1ccc2nc(NC(=O)CC)sc2c1` [N-(6-ethoxybenzothiazol-2-yl)propanamide], the “cellular expression of the ABCA-1 gene” value was “elevate cellular expression of the ABCA-1 gene”.
In the case of `Cc1ccc(-c2ncc(-c3ccc(Cl)cc3)o2)cc1` [5-(4-chlorophenyl)-2-(4-methylphenyl)-1,3-oxazole], the “cellular expression of the ABCA-1 gene” value was “elevate cellular expression of the ABCA-1 gene”.
With `O=C(NCCc1ccccn1)c1ccccc1Cl` [(2-chlorophenyl)-N-(2-(2-pyridyl)ethyl)carboxamide] the “cellular expression of the ABCA-1 gene” value was “elevate cellular expression of the ABCA-1 gene”.
For `O=C(Nc1nc2ccccc2s1)c1ccco1` [N-benzothiazol-2-yl-2-furylcarboxamide], the “cellular expression of the ABCA-1 gene” value was “elevate cellular expression of the ABCA-1 gene”.
In the case of `Cc1onc(-c2ccccc2Cl)c1C(=O)Nc1nc2ccccc2s1` [N-benzothiazol-2-yl[3-(2-chlorophenyl)-5-methylisoxazol-4-yl]carboxamide], the “cellular expression of the ABCA-1 gene” value was “elevate cellular expression of the ABCA-1 gene”.
`COc1cc2c(cc1NC(=O)C(C)(C)C)oc1ccccc12` [N-(2-methoxydibenzo[b,d]furan-3-yl)-2,2-dimethylpropanamide] was tested, and the “cellular expression of the ABCA-1 gene” value was “elevate cellular expression of the ABCA-1 gene”.
`CC(C)(C)c1ccc(C(=O)Nc2ncc(-c3ccccc3)s2)cc1` [[4-(tert-butyl)phenyl]-N-(5-phenyl(1,3-thiazol-2-yl))carboxamide] was tested, and the “cellular expression of the ABCA-1 gene” value was “elevate cellular expression of the ABCA-1 gene”.
In the case of `O=C1CSC(NC(=O)c2ccc(Cl)cc2)=N1` [(4-chlorophenyl)-N-(4-oxo(1,3-thiazolin-2-yl))carboxamide], the “cellular expression of the ABCA-1 gene” value was “elevate cellular expression of the ABCA-1 gene”.
For `CCOC(=O)CNC(=O)N(CCN(C)C)C(C)c1nc2ccccc2c(=O)n1-c1ccc2ccccc2c1` (stereo not drawn) [ethyl 2-({N-[2-(dimethylamino)ethyl]-N-[(3-(2-naphthyl)-4-oxo(3-hydroquinazolin-2-yl))ethyl]carbamoyl}amino)acetate], the “cellular expression of the ABCA-1 gene” value was “elevate cellular expression of the ABCA-1 gene”.
For `CCCCCCCCCCCC(=O)N(/C=C/c1ccccc1)c1ccc(CC)cc1` [N-((1E)-2-phenylvinyl)-N-(4-ethylphenyl)dodecanamide], the “cellular expression of the ABCA-1 gene” value was “elevate cellular expression of the ABCA-1 gene”.
In the case of `CS(=O)(=O)c1ccc2nc(NC(=O)c3ccco3)sc2c1` [2-furyl-N-[6-(methylsulfonyl)benzothiazol-2-yl]carboxamide], the “cellular expression of the ABCA-1 gene” value was “elevate cellular expression of the ABCA-1 gene”.
In the case of `CCOC(=O)C1=C(NCCc2ccccc2)CCN(C(=O)c2ccc(CC)cc2)C1` [ethyl 1-[(4-ethylphenyl)carbonyl]-4-[(2-phenylethyl)amino]-1,2,5,6-tetrahydropyridine-3-carboxylate], the “cellular expression of the ABCA-1 gene” value was “elevate cellular expression of the ABCA-1 gene”.
With `CCCN(C(=O)Nc1cccc(OC)c1)C(C)c1nc2cc(Cl)ccc2c(=O)n1-c1ccc(C)cc1` (stereo not drawn) [N-{[7-chloro-3-(4-methylphenyl)-4-oxo(3-hydroquinazolin-2-yl)]ethyl}[(3-methoxyphenyl)amino]-N-propylcarboxamide] the “cellular expression of the ABCA-1 gene” value was “elevate cellular expression of the ABCA-1 gene”.
With `CC(=O)c1ccc(NC(=O)Nc2ccc(Cl)c(Cl)c2)cc1` [[(4-acetylphenyl)amino]-N-(3,4-dichlorophenyl)carboxamide] the “cellular expression of the ABCA-1 gene” value was “elevate cellular expression of the ABCA-1 gene”.
In the case of `CCN(CCCN(CC)c1nc2cc(C(=O)Nc3ccc(OC)cc3)ccc2o1)C(=O)c1ccoc1` [(2-{ethyl[3-(N-ethyl-3-furylcarbonylamino)propyl]amino}benzoxazol-5-yl)-N-(4-methoxyphenyl)carboxamide], the “cellular expression of the ABCA-1 gene” value was “elevate cellular expression of the ABCA-1 gene”.
For `O=C(NC1=NC(C(=O)O)CS1)c1ccccc1C(F)(F)F` (stereo not drawn) [2-[(2-trifluoromethylphenyl)carbonylamino]-1,3-thiazoline-4-carboxylic acid], the “cellular expression of the ABCA-1 gene” value was “elevate cellular expression of the ABCA-1 gene”.
For `CCOC(=O)C1=C(NCCc2ccccc2)CCN(C(=O)c2ccc(Cl)cc2Cl)C1` [ethyl 1-[(2,4-dichlorophenyl)carbonyl]-4-[(2-phenylethyl)amino]-1,2,5,6-tetrahydropyridine-3-carboxylate], the “cellular expression of the ABCA-1 gene” value was “elevate cellular expression of the ABCA-1 gene”.
In the case of `O=C(NC1=NCCS1)c1ccc2c(c1)OCO2` [2H-benzo[3,4-d]1,3-dioxolan-5-yl-N-(1,3-thiazolin-2-yl)carboxamide], the “cellular expression of the ABCA-1 gene” value was “elevate cellular expression of the ABCA-1 gene”.
With `O=C(Nc1nc2ccccc2s1)C1CCC1` [N-benzothiazol-2-ylcyclobutylcarboxamide] the “cellular expression of the ABCA-1 gene” value was “elevate cellular expression of the ABCA-1 gene”.
In the case of `O=C(Nc1ncc(-c2ccccc2)s1)c1ccccn1` [N-(5-phenyl(1,3-thiazol-2-yl))-2-pyridylcarboxamide], the “cellular expression of the ABCA-1 gene” value was “elevate cellular expression of the ABCA-1 gene”.
In the case of `Cc1ccc(NC(=O)Nc2ccc(Cl)cc2)cc1C` [N-(3,4-dimethylphenyl)[(4-chlorophenyl)amino]carboxamide], the “cellular expression of the ABCA-1 gene” value was “elevate cellular expression of the ABCA-1 gene”.
With `O=C(Nc1nccs1)c1ccc(OC(F)(F)F)cc1` [N-(1,3-thiazol-2-yl)[4-(trifluoromethoxy)phenyl]carboxamide] the “cellular expression of the ABCA-1 gene” value was “elevate cellular expression of the ABCA-1 gene”.
For `N#Cc1ccc(C(=O)NC2=NCCS2)cc1` [(4-cyanophenyl)-N-(1,3-thiazolin-2-yl)carboxamide], the “cellular expression of the ABCA-1 gene” value was “elevate cellular expression of the ABCA-1 gene”.
`O=C(NC1=NCCS1)c1ccc(C(F)(F)F)cc1` [N-(1,3-thiazolin-2-yl)[4-(trifluoromethyl)phenyl]carboxamide] was tested, and the “cellular expression of the ABCA-1 gene” value was “elevate cellular expression of the ABCA-1 gene”.
In the case of `CS(=O)(=O)c1ccc2nc(NC(=O)c3cccs3)sc2c1` [N-[6-(methylsulfonyl)benzothiazol-2-yl]-2-thienylcarboxamide], the “cellular expression of the ABCA-1 gene” value was “elevate cellular expression of the ABCA-1 gene”.
`Cc1ccc(-c2ccc3c(N)c(C#N)sc3n2)cc1` [3-amino-6-(4-methylphenyl)thiopheno[2,3-b]pyridine-2-carbonitrile] was tested, and the “cellular expression of the ABCA-1 gene” value was “elevate cellular expression of the ABCA-1 gene”.
`CCN(CC)CCCC(C)NC(=O)c1cnn(-c2nc(-c3cccc(OC)c3)cs2)c1C` (stereo not drawn) [N-[4-(diethylamino)-1-methylbutyl]{1-[4-(3-methoxyphenyl)(1,3-thiazol-2-yl)]-5-methylpyrazol-4-yl}carboxamide] was tested, and the “cellular expression of the ABCA-1 gene” value was “elevate cellular expression of the ABCA-1 gene”.
With `O=C(Nc1ncc(-c2ccccc2)s1)c1ccc(F)cc1F` [(2,4-difluorophenyl)-N-(5-phenyl(1,3-thiazol-2-yl)) carboxamide] the “cellular expression of the ABCA-1 gene” value was “elevate cellular expression of the ABCA-1 gene”.
For `COC(=O)c1ccc(/N=C(\NC2CCCCC2)N2CCN(Cc3ccc4c(c3)OCO4)CC2)c(O)c1` [methyl 4-{(1E)-1-aza-2-[4-(2H-benzo[d]1,3-dioxolen-5-ylmethyl)piperazinyl]-2-(cyclohexylamino)vinyl}-3-hydroxybenzoate], the “cellular expression of the ABCA-1 gene” value was “elevate cellular expression of the ABCA-1 gene”.
For `COc1cc(OC)cc(C(=O)NC2=NC(=O)CS2)c1` [(3,5-dimethoxyphenyl)-N-(4-oxo(1,3-thiazolin-2-yl))carboxamide], the “cellular expression of the ABCA-1 gene” value was “elevate cellular expression of the ABCA-1 gene”.
